Measurements from patent publication US6407073B1, “Use of coumarin derivatives for the treatment of digestive tract disorders” (Bio-Monde Preparations Limited, priority 1997, dated 2002).
Marks after values point to notes of the source that are not given here.

Legend:
[1] = system: mice with AAP-induced hepatotoxicity; assay: Plasma aminotransferase levels in mice with AAP-induced hepatotoxicity; type: in vivo, CBA/H Zgr inbred mice
Protocol: Plasma aspartate aminotransferase (AST) and alanine aminotransferase (ALT) were measured 24 hours after the administration of acetaminophen, because it has been observed that the levels of AST and ALT are at their peak values at this time. Mice were given 250 units of […] intraoeritoneally 15 minutes before bleeding. Blood was obtained by puncture of medial orbital angle using glass capillary tubes. Plasma was stored at −20° C. until aminotransferase determination, which was carried out using standard laboratory techniques (see Expert Panel on Enzymes, Committee on Standards, Clin. Chem. Biochem. 1977; 15: 39-51 and Clin. Chem. Acta. 1980; 105: 147F-54F). Differences in survival between groups of mice were compared by χ^2-test. Plasma AST and ALT concentrations are expressed as means±SEM and differences between groups were compared by Student's t-test. The effect of a Compound of the invention (Hymecromone) was investigated on plasma aminotransferase levels in mice with AAP-induced hepatotoxicity. Hymecromone (250 mg/kg) or a control of saline was given to mice 30 minutes before administration of acetaminophen (220 mg/kg). Plasma AST and ALT were measured 24 hours after acetaminophen administration. […] As shown, in comparison with normal mice, the administration of acetaminophen increased AST and ALT by approximately 19 and 100 times, respectively.

[2] = system: mice with AAP-induced hepatotoxicity; assay: Survival of mice with acetaminophen (AAP)-induced hepatotoxicity; type: in vivo, CBA/H Zgr inbred mice; settings: for No of dead mice/Total No of mice / Mortality (%): 48 hours; for mortality in comparison with control mice given saline: 250 mg/kg
From the text: The hepatoprotective effect of a composition in accordance with the invention was investigated in mice with acetaminophen (paracetamol) induced hepatotoxicity.
CBA/H Zgr inbred mice were raised in an animal colony unit. Mice of both sexes aged 3 to 4 month were used in the experiments. Mice were maintained under standard laboratory conditions, fed with commercially available murine food pellets and allowed water ad libitum.
The procedure of Guarner was followed (see Hepatology 1988; 3:248-53). To induce hepatic drug-metabolising enzymes, mice were given phenobarbitone-sodium in drinking water for 7 days (0.3 g/L). Thereafter, mice were fasted overnight. […]
The above ingredients were dissolved in phosphate buffered saline (PBS) to which several drops of Tween 20™ (polyoxyethylene 20 sorbitan monolaurate) were added (50 μl/ml). The resulting white milk suspension was administered to mice intraperitoneally.
At the same time, control animals were given 0.5 ml of pyrogen-free saline to which several drops of Tween 20™ (50 μl/ml) were added.
Acetaminophen, dissolved in heated PBS, was given intragastrically, by stomach tube, in a volume of 0.5 ml. Animals were allowed food 4 hours later. Mortality of mice was followed for 48 hours, as previous results have shown that control mice (given saline rather than the composition before acetaminophen) either die within this period or fully recover and survive indefinitely.
Differences in survival between groups of mice were compared by χ^2-test. Plasma AST and ALT concentrations are expressed as means±SEM and differences between groups were compared by Student's t-test.

[3] = Hymecromone 250 mg/kg, AAP 220 mg/kg, P<0.005
[4] = plasma, Hymecromone 250 mg/kg 30 minutes before AAP 220 mg/kg, 24 hours after AAP, mean, n = 16, P < 0.005 vs saline
[5] = Table 1, Hymecromone 50 mg/kg i.p. 30 minutes before AAP 300 mg/kg
[6] = Table 1, Hymecromone 250 mg/kg i.p. 30 minutes before AAP 300 mg/kg, P < 0.01 vs saline
[7] = Table 2, Hymecromone 50 mg/kg i.p. 30 minutes before AAP 250 mg/kg
[8] = Table 2, Hymecromone 250 mg/kg i.p. 30 minutes before AAP 250 mg/kg, P < 0.001 vs saline
[9] = Table 3, Hymecromone 250 mg/kg i.p. 30 minutes before AAP 250 mg/kg, P < 0.001 vs saline

Cc1cc(=O)oc2cc(O)ccc12 [Hymecromone, 7-hydroxy-4-methylcoumarin]
reduction of the increase of ALT in comparison with control mice pretreated with saline [1, 3]: three times
reduction of the increase of AST in comparison with control mice pretreated with saline [1, 3]: five times
ALT [1, 4]: 776 U/L
AST [1, 4]: 267 U/L
No of dead mice/Total No of mice ([2]; Table 1, Hymecromone 10 mg/kg i.p. 30 minutes before AAP 300 mg/kg intragastrically): 12/12
Mortality (%) ([2]; Table 1, Hymecromone 10 mg/kg i.p. 30 minutes before AAP 300 mg/kg): 100%
Mortality (%) [2, 5]: 92%
No of dead mice/Total No of mice [2, 5]: 11/12
Mortality (%) [2, 6]: 29%
No of dead mice/Total No of mice [2, 6]: 2/7
mortality in comparison with control mice given saline ([2]; Table 1 experiment, P<0.01): significantly reduced the mortality
Mortality (%) [2, 7]: (93) %
No of dead mice/Total No of mice [2, 7]: 9/13
Mortality (%) [2, 8]: (0)^c %
No of dead mice/Total No of mice [2, 8]: 0/13
Mortality (%) [2, 9]: (0)^c %
No of dead mice/Total No of mice [2, 9]: 0/15
mortality in comparison with control mice given saline ([2]; two further experiments (Tables 2 and 3), P<0.001): statistically significantly reduced the mortality
